Test results reported in ChEMBL document CHEMBL4251632, “Synthesis and antidepressant-like activity of novel aralkyl piperazine derivatives targeting SSRI/5-HT1A/5-HT7” (Eur J Med Chem, 2018).

How the values were obtained:
[1] = target: T1, Alpha-1A adrenergic receptor (Homo sapiens, UniProt P35348); test: Displacement of [3H]prazosin from alpha1-adrenoceptor (unknown origin) in cerebral cortex membranes after 60 mins by TopCount scintillation counting method; assay type: cell membranes, Membrane
T1 sequence (P35348 whole entry): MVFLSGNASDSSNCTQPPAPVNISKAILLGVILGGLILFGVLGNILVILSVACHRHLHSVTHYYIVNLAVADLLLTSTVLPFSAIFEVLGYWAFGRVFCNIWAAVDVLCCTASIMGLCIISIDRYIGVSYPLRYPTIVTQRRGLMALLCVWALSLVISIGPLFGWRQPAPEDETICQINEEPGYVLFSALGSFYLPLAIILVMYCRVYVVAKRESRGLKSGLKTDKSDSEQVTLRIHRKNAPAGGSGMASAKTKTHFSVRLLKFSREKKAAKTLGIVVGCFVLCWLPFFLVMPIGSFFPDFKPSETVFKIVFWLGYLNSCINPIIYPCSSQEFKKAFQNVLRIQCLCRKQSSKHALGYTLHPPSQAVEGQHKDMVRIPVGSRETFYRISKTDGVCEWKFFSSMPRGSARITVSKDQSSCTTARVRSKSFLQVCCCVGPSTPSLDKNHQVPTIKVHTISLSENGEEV

[2] = Cmax in Sprague-Dawley rat at 2 mg/kg, po administered as single dose by LC-MS/MS analysis; assay type: ADME, organism-based; parameters: dose 2 mg/kg, route oral; conditions: in vivo
[3] = Plasma concentration in Sprague-Dawley rat at 2 mg/kg, po administered as single dose measured after 8 hrs by LC-MS/MS analysis; assay type: ADME, organism-based
[4] = Clearance in rat liver microsomes at 1 uM in presence of NADPH by LC-MS/MS analysis; assay type: ADME, microsome; conditions: read-out: CLH
[5] = Apparent clearance during terminal phase in Sprague-Dawley rat at 2 mg/kg, po administered as single dose by LC-MS/MS analysis; assay type: ADME, organism-based; conditions: in vivo, read-out: CLz/F (converted)
[6] = Plasma concentration in Sprague-Dawley rat at 2 mg/kg, po administered as single dose measured after 2 hrs by LC-MS/MS analysis; assay type: ADME, organism-based
Mus musculus [7] = test: Antidepressant-like activity in po dosed mouse assessed as reduction in immobility time administered once daily for 7 days measured for last 4 mins of 6 mins test at 1 hr post last dose by forced swim test; assay type: functional, organism-based
[8] = target: Sodium-dependent serotonin transporter (Rattus norvegicus) (UniProt P31652); test: Inhibition of [3H]serotonin reuptake in rat brain synaptosomes SERT at 10 uM after 15 mins by TopCount scintillation counting method relative to control; assay type: subcellular
[9] = MRT (0 to t) in Sprague-Dawley rat at 2 mg/kg, po administered as single dose by LC-MS/MS analysis; assay type: ADME, organism-based; conditions: in vivo
[10] = Plasma concentration in Sprague-Dawley rat at 0.5 mg/kg, iv administered as single dose measured after 6 hrs by LC-MS/MS analysis; assay type: ADME, organism-based
[11] = Plasma concentration in Sprague-Dawley rat at 0.5 mg/kg, iv administered as single dose measured after 4 hrs by LC-MS/MS analysis; assay type: ADME, organism-based
Mus musculus [12] = test: Antidepressant-like activity in mouse assessed as reduction in immobility time at 20 mg/kg/day, po once daily for 7 days measured for last 4 mins of 6 mins test at 1 hr post last dose by forced swim test relative to control; assay type: functional; parameters: scale not given: the % may be the effect or the level left
[13] = Plasma concentration in Sprague-Dawley rat at 0.5 mg/kg, iv administered as single dose measured after 2 hrs by LC-MS/MS analysis; assay type: ADME, organism-based
[14] = Plasma concentration in Sprague-Dawley rat at 2 mg/kg, po administered as single dose measured after 1 hr by LC-MS/MS analysis; assay type: ADME, organism-based
[15] = Plasma concentration in Sprague-Dawley rat at 0.5 mg/kg, iv administered as single dose measured after 8 hrs by LC-MS/MS analysis; assay type: ADME, organism-based
[16] = target: T2, 5-hydroxytryptamine receptor 1A (Homo sapiens) (UniProt P08908); test: Displacement of [3H]8-OH-DPAT from recombinant human 5-HT1A receptor expressed in HEK293 cell membranes at 10 uM after 60 mins by TopCount scintillation counting method relative to control
T2 sequence (whole entry): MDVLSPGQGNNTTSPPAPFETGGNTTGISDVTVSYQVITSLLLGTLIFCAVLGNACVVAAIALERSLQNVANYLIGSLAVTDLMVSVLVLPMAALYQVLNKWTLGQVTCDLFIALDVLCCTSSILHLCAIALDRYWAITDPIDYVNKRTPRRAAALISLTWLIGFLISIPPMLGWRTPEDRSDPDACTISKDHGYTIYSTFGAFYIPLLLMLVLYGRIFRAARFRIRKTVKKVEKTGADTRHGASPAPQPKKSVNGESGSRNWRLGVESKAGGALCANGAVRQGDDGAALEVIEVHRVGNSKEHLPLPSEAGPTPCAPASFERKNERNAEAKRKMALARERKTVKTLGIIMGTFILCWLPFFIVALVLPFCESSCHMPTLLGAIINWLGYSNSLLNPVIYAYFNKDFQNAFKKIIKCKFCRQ

[17] = Plasma concentration in Sprague-Dawley rat at 2 mg/kg, po administered as single dose measured after 15 mins by LC-MS/MS analysis; assay type: ADME, organism-based
[18] = Tmax in Sprague-Dawley rat at 0.5 mg/kg, iv administered as single dose by LC-MS/MS analysis; assay type: ADME, organism-based; conditions: in vivo
Mus musculus [19] = test: Antidepressant-like activity in po dosed mouse assessed as reduction in immobility time administered once daily for 7 days measured for 5 mins at 1 hr post last dose by tail suspension test; assay type: functional, organism-based

Sequence of Sodium-dependent serotonin transporter (Rattus norvegicus) (P31652 whole entry): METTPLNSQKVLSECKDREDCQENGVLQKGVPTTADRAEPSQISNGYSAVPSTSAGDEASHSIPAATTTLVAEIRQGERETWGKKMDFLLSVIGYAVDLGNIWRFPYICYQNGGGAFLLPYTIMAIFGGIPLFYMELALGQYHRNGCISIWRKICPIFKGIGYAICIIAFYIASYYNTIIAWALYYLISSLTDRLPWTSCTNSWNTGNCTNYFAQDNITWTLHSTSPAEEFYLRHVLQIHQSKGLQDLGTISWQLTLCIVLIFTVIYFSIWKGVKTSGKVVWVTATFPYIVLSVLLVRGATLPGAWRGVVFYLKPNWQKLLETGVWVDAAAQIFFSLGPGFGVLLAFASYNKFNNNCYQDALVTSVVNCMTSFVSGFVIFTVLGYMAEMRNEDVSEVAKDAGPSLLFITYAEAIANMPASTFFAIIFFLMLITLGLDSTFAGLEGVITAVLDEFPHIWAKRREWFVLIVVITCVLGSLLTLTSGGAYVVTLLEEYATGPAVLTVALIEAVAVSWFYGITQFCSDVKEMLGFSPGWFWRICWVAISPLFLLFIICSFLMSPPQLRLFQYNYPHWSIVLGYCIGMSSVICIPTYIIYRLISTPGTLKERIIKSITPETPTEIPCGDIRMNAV

SMILES: Fc1ccc(N2CCN(CCCc3c[nH]c4ccc(F)cc34)CC2)c(-c2ccccc2)c1
- Ki [1]: 28 nM
- Cmax [2]: 86.7 ng/mL
- concentration at 8 h [3]: 47.4 ng/mL
- microsomal CLint at 1 µM [4]: 29.8 µL/min/mg
- CL/F [5]: 40 mL/min/kg
- concentration at 2 h [6]: 76.7 ng/mL
- Activity (Mus musculus [7]): Dose-dependent effect
- inhibition [8]: > 90%
- MRT last [9]: 4.3 h
- concentration at 6 h [10]: 12.4 ng/mL
- concentration at 4 h [11]: 20.7 ng/mL
- Activity (Mus musculus [12]): 27%
- concentration at 2 h [13]: 32.3 ng/mL
- concentration at 1 h [14]: 72.8 ng/mL
- concentration at 8 h [15]: 8.84 ng/mL
- inhibition [16]: > 90%
- concentration at […] [17]: 20.4 ng/mL
- Tmax [18]: 6 min
- Activity (Mus musculus [19]): Dose-dependent effect
